Measurements: PubChem BioAssay (NCI)
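Following 48 hours of exposure in 96-well plates, responses at five concentrations were used to interpolate endpoints linearly. The concentration for 50% growth inhibition is given as GI50. TGI is the concentration that stops growth completely.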

Legend:
Experiment in all cases: NCI tumour cell line growth inhibition, 48 h
MDA-MB-435 = system: MDA-MB-435
ACHN renal = system: ACHN renal
HOP-92 NSCLC = system: HOP-92 NSCLC
OVCAR-8 ovarian = system: OVCAR-8 ovarian
SK-OV-3 ovarian = system: SK-OV-3 ovarian
HL-60(TB) leukemia = system: HL-60(TB) leukemia
TK-10 renal = system: TK-10 renal
HCT-116 colon = system: HCT-116 colon
UACC-257 melanoma = system: UACC-257 melanoma
MALME-3M melanoma = system: MALME-3M melanoma
A549 NSCLC = system: A549 NSCLC
OVCAR-4 ovarian = system: OVCAR-4 ovarian
M14 melanoma = system: M14 melanoma
T-47D breast = system: T-47D breast
SF-539 CNS = system: SF-539 CNS
EKVX NSCLC = system: EKVX NSCLC
COLO 205 colon = system: COLO 205 colon
SK-MEL-2 melanoma = system: SK-MEL-2 melanoma
OVCAR-3 ovarian = system: OVCAR-3 ovarian
NCI-H522 lung = system: NCI-H522 lung
UO-31 renal = system: UO-31 renal
HT29 colon = system: HT29 colon
CAKI-1 renal = system: CAKI-1 renal
IGROV1 ovarian = system: IGROV1 ovarian
LOX IMVI melanoma = system: LOX IMVI melanoma
SNB-19 CNS = system: SNB-19 CNS
MDA-MB-231 breast = system: MDA-MB-231 breast
HOP-62 NSCLC = system: HOP-62 NSCLC
SF-268 CNS = system: SF-268 CNS
NCI-H23 lung = system: NCI-H23 lung
K-562 leukemia = system: K-562 leukemia
BT-549 breast = system: BT-549 breast
SR leukemia = system: SR leukemia
DU-145 prostate = system: DU-145 prostate
SN12C renal = system: SN12C renal
UACC-62 melanoma = system: UACC-62 melanoma
NCI-H460 lung = system: NCI-H460 lung
U251 CNS = system: U251 CNS
MOLT-4 leukemia = system: MOLT-4 leukemia
HS 578T breast = system: HS 578T breast
MCF7 breast = system: MCF7 breast
786-0 renal = system: 786-0 renal
SF-295 CNS = system: SF-295 CNS
SK-MEL-28 melanoma = system: SK-MEL-28 melanoma
RXF 393 renal = system: RXF 393 renal
HCT-15 colon = system: HCT-15 colon
A498 renal = system: A498 renal
SK-MEL-5 melanoma = system: SK-MEL-5 melanoma
HCC-2998 colon = system: HCC-2998 colon
NCI/ADR-RES ovarian = system: NCI/ADR-RES ovarian
OVCAR-5 ovarian = system: OVCAR-5 ovarian
KM12 colon = system: KM12 colon
NCI-H226 lung = system: NCI-H226 lung
SNB-75 CNS = system: SNB-75 CNS
CCRF-CEM leukemia = system: CCRF-CEM leukemia
PC-3 prostate = system: PC-3 prostate

Nc1ncc(-c2ccc3ncnc(N4CCc5cc(F)c(Cl)cc54)c3c2)cc1C=O
GI50 (MDA-MB-435): 909 nM | TGI (MDA-MB-435): 6.97 µM | GI50 (ACHN renal): 638 nM | TGI (ACHN renal): > 100 µM | GI50 (HOP-92 NSCLC): 149 nM | TGI (HOP-92 NSCLC): 1460 nM | GI50 (OVCAR-8 ovarian): 2540 nM | TGI (OVCAR-8 ovarian): > 100 µM | GI50 (SK-OV-3 ovarian): 1040 nM | TGI (SK-OV-3 ovarian): 6.42 µM | GI50 (HL-60(TB) leukemia): 403 nM | TGI (HL-60(TB) leukemia): 3.86 µM | GI50 (TK-10 renal): 248 nM | TGI (TK-10 renal): 3.65 µM | GI50 (HCT-116 colon): 2290 nM | TGI (HCT-116 colon): > 100 µM | GI50 (UACC-257 melanoma): 1640 nM | TGI (UACC-257 melanoma): > 100 µM | GI50 (MALME-3M melanoma): 1130 nM | TGI (MALME-3M melanoma): > 100 µM | GI50 (A549 NSCLC): 949 nM | TGI (A549 NSCLC): 12.5 µM | GI50 (OVCAR-4 ovarian): 2980 nM | TGI (OVCAR-4 ovarian): > 100 µM | GI50 (M14 melanoma): 1850 nM | TGI (M14 melanoma): > 100 µM | GI50 (T-47D breast): 587 nM | TGI (T-47D breast): > 100 µM | GI50 (SF-539 CNS): 2380 nM | TGI (SF-539 CNS): > 100 µM | GI50 (EKVX NSCLC): 371 nM | TGI (EKVX NSCLC): > 100 µM | GI50 (COLO 205 colon): 1900 nM | TGI (COLO 205 colon): > 100 µM | GI50 (SK-MEL-2 melanoma): 1590 nM | TGI (SK-MEL-2 melanoma): 6.05 µM | GI50 (OVCAR-3 ovarian): 1660 nM | TGI (OVCAR-3 ovarian): > 100 µM | GI50 (NCI-H522 lung): 2170 nM | TGI (NCI-H522 lung): > 100 µM | GI50 (UO-31 renal): 277 nM | TGI (UO-31 renal): > 100 µM | GI50 (HT29 colon): 1570 nM | TGI (HT29 colon): > 100 µM | GI50 (CAKI-1 renal): 845 nM | TGI (CAKI-1 renal): > 26.2 µM | GI50 (IGROV1 ovarian): 314 nM | TGI (IGROV1 ovarian): 2390 nM | GI50 (LOX IMVI melanoma): 2520 nM | TGI (LOX IMVI melanoma): > 100 µM | GI50 (SNB-19 CNS): 2280 nM | TGI (SNB-19 CNS): > 100 µM | GI50 (MDA-MB-231 breast): 1800 nM | TGI (MDA-MB-231 breast): > 100 µM | GI50 (HOP-62 NSCLC): 896 nM | TGI (HOP-62 NSCLC): > 100 µM | GI50 (SF-268 CNS): 1020 nM | TGI (SF-268 CNS): > 100 µM | GI50 (NCI-H23 lung): 2350 nM | TGI (NCI-H23 lung): > 100 µM | GI50 (K-562 leukemia): 2820 nM | TGI (K-562 leukemia): > 100 µM | GI50 (BT-549 breast): 1310 nM | TGI (BT-549 breast): > 100 µM | GI50 (SR leukemia): 2670 nM | TGI (SR leukemia): > 26 µM | GI50 (DU-145 prostate): 936 nM | TGI (DU-145 prostate): > 100 µM | GI50 (SN12C renal): 1050 nM | TGI (SN12C renal): > 100 µM | GI50 (UACC-62 melanoma): 574 nM | TGI (UACC-62 melanoma): 3.02 µM | GI50 (NCI-H460 lung): 814 nM | TGI (NCI-H460 lung): > 100 µM | GI50 (U251 CNS): 2700 nM | TGI (U251 CNS): > 100 µM | GI50 (MOLT-4 leukemia): 1010 nM | TGI (MOLT-4 leukemia): 6.56 µM | GI50 (HS 578T breast): 369 nM | TGI (HS 578T breast): 3.06 µM | GI50 (MCF7 breast): 1700 nM | TGI (MCF7 breast): > 100 µM | GI50 (786-0 renal): 658 nM | TGI (786-0 renal): > 100 µM | GI50 (SF-295 CNS): 1320 nM | TGI (SF-295 CNS): > 27.9 µM | GI50 (SK-MEL-28 melanoma): 1610 nM | TGI (SK-MEL-28 melanoma): > 100 µM | GI50 (RXF 393 renal): 471 nM | TGI (RXF 393 renal): 2140 nM | GI50 (HCT-15 colon): 2410 nM | TGI (HCT-15 colon): > 100 µM | GI50 (A498 renal): 167 nM | TGI (A498 renal): 758 nM | GI50 (SK-MEL-5 melanoma): 1870 nM | TGI (SK-MEL-5 melanoma): 4.54 µM | GI50 (HCC-2998 colon): 2290 nM | TGI (HCC-2998 colon): > 100 µM | GI50 (NCI/ADR-RES ovarian): 2820 nM | TGI (NCI/ADR-RES ovarian): > 100 µM | GI50 (OVCAR-5 ovarian): 867 nM | TGI (OVCAR-5 ovarian): > 100 µM | GI50 (KM12 colon): 2860 nM | TGI (KM12 colon): > 100 µM | GI50 (NCI-H226 lung): 861 nM | TGI (NCI-H226 lung): > 100 µM | GI50 (SNB-75 CNS): 191 nM | TGI (SNB-75 CNS): 2770 nM | GI50 (CCRF-CEM leukemia): 2120 nM | TGI (CCRF-CEM leukemia): > 100 µM | GI50 (PC-3 prostate): 824 nM | TGI (PC-3 prostate): > 100 µM
